Data taken from patent US5691362A, “Substituted benzene-fused hetero- and carbocyclics as nuerokinin antagonists” (Schering-Plough Corporation, priority 1996, dated 1997).
Where two headings read alike, the source gives them in different places.

Tests used:
[1] = biological target: T1, human neurokinin 1 (NK1) receptor (Homo sapiens, UniProt P25103); assay: Neurokinin receptor binding assay, NK1 ([3H]-Substance P); settings: for inhibition at 1 µM: read-out: % Inhibition NK1 (1 μM dose)
T1 construct: expressed in transfected cells; host or cells: Chinese hamster ovary (CHO) cells, membranes
T1 sequence (P25103 whole entry): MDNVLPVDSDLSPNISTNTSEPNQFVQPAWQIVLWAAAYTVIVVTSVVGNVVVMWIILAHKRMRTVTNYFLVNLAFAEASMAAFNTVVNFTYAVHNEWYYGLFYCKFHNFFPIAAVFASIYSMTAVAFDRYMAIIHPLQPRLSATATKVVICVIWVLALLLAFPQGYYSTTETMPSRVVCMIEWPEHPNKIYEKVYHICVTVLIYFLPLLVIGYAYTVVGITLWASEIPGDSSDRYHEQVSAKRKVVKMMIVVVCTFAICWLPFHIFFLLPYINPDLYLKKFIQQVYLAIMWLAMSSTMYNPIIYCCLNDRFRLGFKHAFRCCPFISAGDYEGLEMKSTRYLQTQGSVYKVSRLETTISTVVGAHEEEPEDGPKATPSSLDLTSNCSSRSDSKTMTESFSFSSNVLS
Experimental: (§1) Chinese Hamster ovary (CHO) cells transfected with the coding regions for the human neurokinin 1 (NK1) of the human neurokinin 2 (NK2) receptors are grown in Dulbecco's minimal essential medium supplemented with 10% fetal calf serum, 0.1 mM non-essential amino acids, 2 mM glutamine, 100 units/ml of penicillin and streptomycin, and 0.8 mg of G418/ml at 37° C. in a humidified atmosphere containing 5% CO2.
(§2) Cells are detached from T-175 flasks with a sterile solution containing 5 mM EDTA in phosphate buffered saline. Cells are harvested by centrifugation and washed in RPMI media at […] for 5 minutes. The pellet is resuspended in Tris-HCl (pH7.4) containing 1 μM phsphoramidon and 4 ug/ml of chymostatin at a cell density of 30×10^6 cells/ml. The suspension is then homogenized in a Brinkman Polytron (setting 5) for 30-45 seconds. The homogenate is centrifuged at 800×g for 5 min at 4° C. to collect unbroken cells and nuclei. The supernatant is centrifuged in a Sorvall RC5C at 19,000 rpm ([…]) for 30 min at 4° C. The pellet is resuspended, an aliquot is removed for a protein determination (BCA) and washed again. The resulting pellet is stored at -80° C.
(§3) To assay receptor binding, 50 μl of [^3 H]-Substance P (9-Sar, 11-Met) (specific activity 41 Ci/mmol) (Dupont-NEN) (0.8 nM for the NK-1 assay) or [^3 H]-Neurokinin A (specific activity 114 Ci/mmole) (Zenca) (1.0 nM for the NK-2 assay) is added to tubes containing buffer (50 mM Tris-HCl (pH 7.4) with 1 mM MnCl2 and 0.2% Bovine Serum Albumin) and either DMSO or test compound. Binding is initiated by the addition of 100 μl of membrane (10-20 μg) containing the human NK-1 or NK-2 receptor in a final volume of 200 μl. After 40 minutes at room temperature, the reaction is stopped by rapid filtration onto Whatman GF/C filters which have been presoaked in 0.3% polyethyleneimine. Filters are washed 2 times with 3 ml of 50 mM Tris-HCl (pH7.4). Filters are added to 6 mls of Ready-Safe liquid scintillation cocktail and quantified by liquid scintillation spectrometry in a LKB 1219 RackBeta counter. Non-specific binding is determined by the addition of either 1 μM of CP-99994 (NK-1) or 1 μM SR-48968 (NK-2) (both synthesized by the chemistry department of Schering-Plough Research Institute). IC50 values are determined from competition binding curves and Ki values are determined according to Cheng and Prusoff using the experimentally determined value of 0.8 nM for the NK-1 receptor and 2.4 nM for the NK-2 receptor.
(§4) % Inhibition is the difference between the percent of maximum specific binding (MSB) and 100%. The percent of MSB is defined by the following equation, wherein "dpm" is disintegrations per minute: [formula]

[2] = biological target: T2, human neurokinin 2 (NK2) receptor (Homo sapiens, UniProt P21452); assay: Neurokinin receptor binding assay, NK2 ([3H]-Neurokinin A); settings: for inhibition at 1 µM: read-out: % Inhibition NK2 (1 μM dose)
T2 construct: expressed in transfected cells; host or cells: Chinese hamster ovary (CHO) cells, membranes
T2 sequence (P21452 1-398): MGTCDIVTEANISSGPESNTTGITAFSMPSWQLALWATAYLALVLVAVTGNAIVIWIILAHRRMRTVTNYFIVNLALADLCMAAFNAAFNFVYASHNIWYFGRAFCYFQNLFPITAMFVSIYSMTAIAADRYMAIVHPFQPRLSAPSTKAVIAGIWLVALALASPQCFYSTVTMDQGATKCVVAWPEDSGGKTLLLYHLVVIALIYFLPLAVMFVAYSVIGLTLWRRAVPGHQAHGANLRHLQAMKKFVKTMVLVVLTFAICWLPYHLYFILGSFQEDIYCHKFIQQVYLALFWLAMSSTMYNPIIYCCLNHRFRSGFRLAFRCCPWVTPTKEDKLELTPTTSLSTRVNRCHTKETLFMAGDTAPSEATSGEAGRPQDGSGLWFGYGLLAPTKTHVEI
Experimental: as §1, §2, §3, §4

[3] = CHO membranes, human NK-1 receptor, [3H]-Substance P 0.8 nM, Cheng-Prusoff, read-out: Ki (NK1)
[4] = CHO membranes, human NK-2 receptor, [3H]-Neurokinin A 1.0 nM, Cheng-Prusoff, read-out: Ki (NK2)

COc1cc(C(=O)N(C)CC(CCN[C@@H](Cc2c[nH]c3ccccc23)C(=O)O)c2ccc(Cl)c(Cl)c2)cc(OC)c1OC (stereo partly shown) [Example 7d]
Ki [1, 3]: 233 nM
Ki [2, 4]: 30 nM

CN(CCc1c[nH]c2ccccc12)CCC1(c2ccc(Cl)c(Cl)c2)CCN(C(=O)c2cc(C(F)(F)F)cc(C(F)(F)F)c2)C1 (stereo not shown) [Example 14b]
Ki [1]: 21 nM
inhibition at 1 µM [1]: 81%
Ki [2]: 143 nM
inhibition at 1 µM [2]: 88%

Cc1cc(C(=O)N(C)CC(CCN(C)CCc2c[nH]c3ccccc23)c2ccc(Cl)c(Cl)c2)cc(Cl)n1 (stereo not shown) [Example 12c]
Ki [1]: 103 nM
inhibition at 1 µM [1]: 82%
Ki [2]: 39 nM
inhibition at 1 µM [2]: 93%

COc1cc(C(=O)N(C)CC(CCN(C)CCCc2c[nH]c3ccccc23)c2ccc(Cl)c(Cl)c2)cc(OC)c1OC (stereo not shown) [Example 7b]
Ki [1, 3]: 19 nM
Ki [2, 4]: 217 nM

COc1cc(C(=O)N(C)CC(CCN(C)CCc2c[nH]c3ccc(F)cc23)c2ccc(Cl)c(Cl)c2)cc(OC)c1OC (racemic) [Example 7c]
inhibition at 1 µM [2]: 100%
